From PubChem BioAssay AID1963451 (Molecular Pharmacology Branch, DTP, NCI, 2024)

Test system: 521955-158-R6-J3-PDC complex spheroid growth, % test/control
Experiment: Anticancer human tumor 521955-158-R6-J3-PDC patient-derived pancreatic carcinoma cell line growth inhibition [Asc]
Conditions: for IC50: curve of first compound; for viability, T/C: stronger effect = lower value
How it was run: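 Spheroid model: tumor line + HUVEC + hMSC. Single agents and combinations; top conc. at/near clinical Cmax (10 microM if undetermined), half-log dilutions. DMSO stocks at 800-fold test concentration.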

[1] = second compound 0.0316 µM, first compound 0.00316 µM
[2] = second compound 0.0316 µM, first compound 0.01 µM
[3] = second compound 0.0316 µM, first compound 0.0316 µM
[4] = second compound 0.0316 µM, first compound 0.1 µM
[5] = second compound 0.1 µM, first compound 0.00316 µM
[6] = second compound 0.1 µM, first compound 0.01 µM
[7] = second compound 0.1 µM, first compound 0.0316 µM
[8] = second compound 0.1 µM, first compound 0.1 µM
[9] = second compound 0.316 µM, first compound 0.00316 µM
[10] = second compound 0.316 µM, first compound 0.01 µM
[11] = second compound 0.316 µM, first compound 0.0316 µM
[12] = second compound 0.316 µM, first compound 0.1 µM
[13] = second compound 1 µM, first compound 0.00316 µM
[14] = second compound 1 µM, first compound 0.01 µM
[15] = second compound 1 µM, first compound 0.0316 µM
[16] = second compound 1 µM, first compound 0.1 µM
[17] = second compound 3.16 µM, first compound 0.00316 µM
[18] = second compound 3.16 µM, first compound 0.01 µM
[19] = second compound 3.16 µM, first compound 0.0316 µM
[20] = second compound 3.16 µM, first compound 0.1 µM
[21] = second compound 10 µM, first compound 0.00316 µM
[22] = second compound 10 µM, first compound 0.01 µM
[23] = second compound 10 µM, first compound 0.0316 µM
[24] = second compound 10 µM, first compound 0.1 µM
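Further: spheroids exposed to compounds for 7 days.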
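Wherever viability, T/C is given: 100% = DMSO vehicle control wells.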

Question: What does the source list for `COc1c(OCCCN2CCOCC2)ccc2c3n(c(=NC(=O)c4cnc(N)nc4)nc12)CCN3` + Cc1c(S(C)(=O)=O)c(-c2cc(F)cc(N3CCN(c4ccc(NS(=O)(=O)c5ccc(NC(CCN6CCC(C(=O)OCCCP(=O)(O)O)CC6)CSc6ccccc6)c(S(=O)(=O)C(F)(F)F)c5)cc4)CC3)c2)c(-c2ccc(Cl)cc2)n1C(C)C?
Answer: IC50 (second compound 0.0316 µM): 222 nM; IC50 (second compound 0.1 µM): 84.7 nM; IC50 (second compound 0.316 µM): < 3.16 nM; IC50 (second compound 1 µM): < 3.16 nM; IC50 (second compound 3.16 µM): < 3.16 nM; IC50 (second compound 10 µM): < 3.16 nM; viability, T/C [1]: 87.5%; viability, T/C [2]: 84.8%; viability, T/C [3]: 55.2%; viability, T/C [4]: 70.2%; viability, T/C (second compound 0.0316 µM, first compound 0.316 µM): 46.7%; viability, T/C (second compound 0.0316 µM, first compound 1 µM): 27.4%; viability, T/C [5]: 82.7%; viability, T/C [6]: 61%; viability, T/C [7]: 61.6%; viability, T/C [8]: 53.4%; viability, T/C (second compound 0.1 µM, first compound 0.316 µM): 34%; viability, T/C (second compound 0.1 µM, first compound 1 µM): 17.3%; viability, T/C [9]: 42%; viability, T/C [10]: 38.9%; viability, T/C [11]: 39%; viability, T/C [12]: 30.5%; viability, T/C (second compound 0.316 µM, first compound 0.316 µM): 28%; viability, T/C (second compound 0.316 µM, first compound 1 µM): 13%; viability, T/C [13]: 33.9%; viability, T/C [14]: 36.3%; viability, T/C [15]: 33.5%; viability, T/C [16]: 20.5%; viability, T/C (second compound 1 µM, first compound 0.316 µM): 15.8%; viability, T/C (second compound 1 µM, first compound 1 µM): 6.07%; viability, T/C [17]: 15.3%; viability, T/C [18]: 18.2%; viability, T/C [19]: 16.9%; viability, T/C [20]: 11.9%; viability, T/C (second compound 3.16 µM, first compound 0.316 µM): 4.31%; viability, T/C (second compound 3.16 µM, first compound 1 µM): 2.03%; viability, T/C [21]: 17.6%; viability, T/C [22]: 14.4%; viability, T/C [23]: 8.58%; viability, T/C [24]: 7.73%; viability, T/C (second compound 10 µM, first compound 0.316 µM): 2.64%; viability, T/C (second compound 10 µM, first compound 1 µM): 1.68%

Question: What does the source list for `NC(=O)C(=Cn1cnc(-c2cc(C(F)(F)F)cc(C(F)(F)F)c2)n1)c1cncnc1` + Cc1c(S(C)(=O)=O)c(-c2cc(F)cc(N3CCN(c4ccc(NS(=O)(=O)c5ccc(NC(CCN6CCC(C(=O)OCCCP(=O)(O)O)CC6)CSc6ccccc6)c(S(=O)(=O)C(F)(F)F)c5)cc4)CC3)c2)c(-c2ccc(Cl)cc2)n1C(C)C?
Answer: IC50 (second compound 0.0316 µM): > 300 nM; IC50 (second compound 0.1 µM): > 300 nM; IC50 (second compound 0.316 µM): > 300 nM; IC50 (second compound 1 µM): < 0.949 nM; IC50 (second compound 3.16 µM): < 0.949 nM; IC50 (second compound 10 µM): < 0.949 nM; viability, T/C (second compound 0.0316 µM, first compound 0.000949 µM): 95%; viability, T/C (second compound 0.0316 µM, first compound 0.003 µM): 97.1%; viability, T/C (second compound 0.0316 µM, first compound 0.00949 µM): 60.6%; viability, T/C (second compound 0.0316 µM, first compound 0.03 µM): 82.1%; viability, T/C (second compound 0.0316 µM, first compound 0.0949 µM): 103%; viability, T/C (second compound 0.0316 µM, first compound 0.3 µM): 108%; viability, T/C (second compound 0.1 µM, first compound 0.000949 µM): 84%; viability, T/C (second compound 0.1 µM, first compound 0.003 µM): 90.4%; viability, T/C (second compound 0.1 µM, first compound 0.00949 µM): 70.9%; viability, T/C (second compound 0.1 µM, first compound 0.03 µM): 62.1%; viability, T/C (second compound 0.1 µM, first compound 0.0949 µM): 89.3%; viability, T/C (second compound 0.1 µM, first compound 0.3 µM): 85.9%; viability, T/C (second compound 0.316 µM, first compound 0.000949 µM): 70.3%; viability, T/C (second compound 0.316 µM, first compound 0.003 µM): 49%; viability, T/C (second compound 0.316 µM, first compound 0.00949 µM): 47.2%; viability, T/C (second compound 0.316 µM, first compound 0.03 µM): 47.5%; viability, T/C (second compound 0.316 µM, first compound 0.0949 µM): 69.6%; viability, T/C (second compound 0.316 µM, first compound 0.3 µM): 43.5%; viability, T/C (second compound 1 µM, first compound 0.000949 µM): 47.1%; viability, T/C (second compound 1 µM, first compound 0.003 µM): 30.3%; viability, T/C (second compound 1 µM, first compound 0.00949 µM): 34.6%; viability, T/C (second compound 1 µM, first compound 0.03 µM): 33%; viability, T/C (second compound 1 µM, first compound 0.0949 µM): 43.8%; viability, T/C (second compound 1 µM, first compound 0.3 µM): 18.4%; viability, T/C (second compound 3.16 µM, first compound 0.000949 µM): 19.8%; viability, T/C (second compound 3.16 µM, first compound 0.003 µM): 21.9%; viability, T/C (second compound 3.16 µM, first compound 0.00949 µM): 22.6%; viability, T/C (second compound 3.16 µM, first compound 0.03 µM): 20.9%; viability, T/C (second compound 3.16 µM, first compound 0.0949 µM): 16.2%; viability, T/C (second compound 3.16 µM, first compound 0.3 µM): 5.69%; viability, T/C (second compound 10 µM, first compound 0.000949 µM): 12.2%; viability, T/C (second compound 10 µM, first compound 0.003 µM): 16.9%; viability, T/C (second compound 10 µM, first compound 0.00949 µM): 11.6%; viability, T/C (second compound 10 µM, first compound 0.03 µM): 10.2%; viability, T/C (second compound 10 µM, first compound 0.0949 µM): 9.2%; viability, T/C (second compound 10 µM, first compound 0.3 µM): 0.76%

Question: Which results are given for `NC1CCC(NC2CC2c2ccccc2)CC1` (stereo unspecified) + Cc1c(S(C)(=O)=O)c(-c2cc(F)cc(N3CCN(c4ccc(NS(=O)(=O)c5ccc(NC(CCN6CCC(C(=O)OCCCP(=O)(O)O)CC6)CSc6ccccc6)c(S(=O)(=O)C(F)(F)F)c5)cc4)CC3)c2)c(-c2ccc(Cl)cc2)n1C(C)C?
Answer: IC50 (second compound 0.0316 µM): > 100 nM; IC50 (second compound 0.1 µM): > 100 nM; IC50 (second compound 0.316 µM): < 0.316 nM; IC50 (second compound 1 µM): < 0.316 nM; IC50 (second compound 3.16 µM): < 0.316 nM; IC50 (second compound 10 µM): < 0.316 nM; viability, T/C (second compound 0.0316 µM, first compound 0.000316 µM): 83.7%; viability, T/C (second compound 0.0316 µM, first compound 0.001 µM): 97.1%; viability, T/C [1]: 80.8%; viability, T/C [2]: 92.7%; viability, T/C [3]: 96.6%; viability, T/C [4]: 90.4%; viability, T/C (second compound 0.1 µM, first compound 0.000316 µM): 97.7%; viability, T/C (second compound 0.1 µM, first compound 0.001 µM): 94.7%; viability, T/C [5]: 87.4%; viability, T/C [6]: 74.8%; viability, T/C [7]: 79.1%; viability, T/C [8]: 73.3%; viability, T/C (second compound 0.316 µM, first compound 0.000316 µM): 47.1%; viability, T/C (second compound 0.316 µM, first compound 0.001 µM): 51.2%; viability, T/C [9]: 55.4%; viability, T/C [10]: 61.9%; viability, T/C [11]: 43.9%; viability, T/C [12]: 63.8%; viability, T/C (second compound 1 µM, first compound 0.000316 µM): 29%; viability, T/C (second compound 1 µM, first compound 0.001 µM): 36.1%; viability, T/C [13]: 38.5%; viability, T/C [14]: 29.1%; viability, T/C [15]: 45.4%; viability, T/C [16]: 36.6%; viability, T/C (second compound 3.16 µM, first compound 0.000316 µM): 16.8%; viability, T/C (second compound 3.16 µM, first compound 0.001 µM): 19.4%; viability, T/C [17]: 20%; viability, T/C [18]: 20.5%; viability, T/C [19]: 20.6%; viability, T/C [20]: 18.4%; viability, T/C (second compound 10 µM, first compound 0.000316 µM): 16.8%; viability, T/C (second compound 10 µM, first compound 0.001 µM): 11.2%; viability, T/C [21]: 16.9%; viability, T/C [22]: 11.9%; viability, T/C [23]: 11.8%; viability, T/C [24]: 11.5%
